Earlier results, collected in patent publication US10392388B2, “Meropenem derivatives and uses thereof” (Kala Pharmaceuticals, Inc., priority 2013, dated 2019).

Columns and labels:
[1] = test system: Pseudomonas aeruginosa

Structure (SMILES): C[C@@H](O)[C@H]1C(=O)N2C(C(=O)O)=C(S[C@@H]3CN[C@H](C(=O)N(C)C)C3)[C@H](C)[C@H]12 [Meropenem, meropenem]
- MIC90 [1]: about 8 μg/mL
- water solubility: > 1000 µg/mL
